In publication PMC7961380, “A Systematic Study of the In Vitro Pharmacokinetics and Estimated Human In Vivo Clearance of Indole and Indazole-3-Carboxamide Synthetic Cannabinoid Receptor Agonists Detected on the Illicit Drug Market” (Molecules, 2021):
Like-named read-outs stand apart in the source and are kept apart here.

Legend:
[1] = Short-term plasma stability with and without esterase inhibitors; conditions: 3 h, 37 °C; for remaining at 3 h, 5 µM: human, pH 7.4, Parent Compound Remaining (%)
Experimental: The pooled plasma used for both plasma stability and plasma binding studies originated from 50 donors, collected as whole blood from donors in the United States at an FDA-approved collection center, processed into plasma by centrifugation and immediately frozen (Innovative Research; Novi, MI, USA) and purchased from Patricell (Nottingham, UK). […] Stock solutions were prepared in DMSO. […] For incubations without inhibitor an equivalent volume of DMSO was included. Plasma mixture was pre-incubated at 37 °C for 5 min. Test compounds (5 µM) and procaine (positive control, 50 µM) were added to pre-warmed plasma mixture containing inhibitors. Incubation volume was 1 mL. Samples were mixed and 80 µL was immediately sampled and quenched into 200 µL ACN spiked with donepezil (internal standard (IS), 50 ng mL^−1). […] Peak area ratio of analyte to IS was used to determine half-lives of test compounds in plasma, both with and without the presence of esterase inhibitors.
The human plasma used was pooled from 50 donors, and was collected as whole blood from donors in
the United States at an FDA-approved collection center, processed into plasma by centrifugation and
The stability of the tested SCRAs, select metabolites and procaine control in pooled human plasma over
inhibitors bis(4-nitrophenyl) phosphate (BNPP) and phenyl methyl sulphonyl fluoride (PMSF) is

[2] = system: pooled human cryopreserved hepatocytes (pHHeps); assay: Metabolic stability, pooled human cryopreserved hepatocyte incubations; conditions: for Predicted In Vivo Hepatic Clearance, CLH: from pHHeps CLint, well-stirred model with plasma fu, Q 21 mL min^−1 kg^−1; for T1/2: pHHeps 0.25 million cells mL^−1, 0.5 µM, 37 °C, n ≥ 3 ± SD; for Intrinsic clearance, CLint: alternative hepatocyte cell density 99x10^6 hepatocytes per gram liver
[3] = Metabolic stability, pooled human liver microsome incubations; conditions: for Predicted In Vivo Hepatic Clearance, CLH: from pHLM CLint, well-stirred model with plasma fu, Q 21 mL min^−1 kg^−1; for CLint scaled at 0.5 µM: pH 7.4, Intrinsic clearance
Experimental: Total incubation volume was 500 µL. Procedure: Test compound working solutions (50 µM in potassium phosphate buffer (pH 7.4)) were prepared (<1% DMSO). pHLM were thawed and diluted in potassium phosphate buffer (pH 7.4). […] Reactions were quenched in 200 µL ACN spiked with donepezil (IS, 50 ng mL^−1). […] Samples were analysed by UPLC-MS/MS in a 96 deep-well 2 mL plate. Each SCRA was incubated at least in triplicate but additional incubations were carried out across a number of analytical batches, giving greater replication and a greater understanding of system variability. Microsomal scaling factors used for human liver microsome incubations in the literature vary. Intrinsic clearance and predicted in vivo clearance rates calculated using alternative scaling factors found in the literature is provided in Section S6 of the supplementary information, to aid comparison of data between publications.
Equations used for in vitro intrinsic clearance calculation and human in vivo clearance […]
The equations used for in vitro intrinsic clearance calculation and human in vivo clearance estimation […]
Microsomal clearance (HLM incubations) in mL min-1 mg microsomal protein-1 [3]
Intrinsic clearance (whole-liver dimensions) (HLM incubations) in mL min-1 kg-1 [3] CL = k x V x [Liver](g) x SF Eqn. 7 […]
mg g microsomal protein-1 [7]
Intrinsic clearance (whole-liver dimensions) (HHep incubations) in mL min-1 kg-1 [4] CL = k x V x hepatocytes/g liver x [Liver](g) Eqn. 8 […]
Where: hepatocytes/g liver = 107x10^6 cells/g liver
Hepatic clearance in mL min-1 kg-1 [3]
[…] Eqn. 9
Where: Q = hepatic blood flow, 21 mL min-1 kg-1 [9]; fu = fraction unbound (plasma); CLint = […]
Estimated human hepatic extraction ratio [5]
Intrinsic clearance data – pooled human liver microsome incubations […]
table S4-28. Intrinsic clearance and predicted in vivo data calculated using alternative microsomal scaling factors found in the literature – 32 [10] and 45 [11] mg microsomal protein per gram liver – are provided in tables S29 and S30, respectively.

[4] = Plasma protein binding by equilibrium dialysis; type: in vitro ADME, human; conditions: 37 °C; for fraction unbound at 5 h, 10 µg mL^−1: human, pooled human plasma, pH 7.4, equilibrium dialysis 5 h
Experimental: Plasma protein binding was assessed by equilibrium dialysis in a 96-well dialysis block (HTDialysis, Ledyard, CT, USA). Dialysis membranes (12–14 kDa) were soaked in deionised water for at least 60 min. Membranes were soaked overnight at 4 °C in ethanol:water 20:80% v/v and then rinsed with deionised water immediately prior to use. […] Spiked plasma (150 µL) was dialysed against isotonic phosphate buffer (pH 7.4) (150 µL) for 5 h at 37 °C with shaking at 100 rpm. Thermal degradation controls for each test compound were kept at 37 °C and 4 °C. Blank control plasma and buffer were included in the incubation. Following incubation, dialysed plasma samples and thermal degradation controls (50 µL) were added to drug-free buffer (50 µL), and dialysed buffer samples (50 µL) were added to drug-free plasma (50 µL). […] Supernatant (150 µL) was added to 50 µL deionised water and samples were analysed by UPLC-MS/MS as described above. Dialysed buffer from each well was tested for protein contamination using BCA protein assay reagent to determine whether membranes had been compromised.
Bu = Analyte/IS ratio determined in buffer side (2) Fraction unbound, fu=(100−% bound)/100

[5] = pHHeps, 99x10^6 hepatocytes per gram liver
[6] = pHLM, scaling factor 32 mg microsomal protein per gram liver
[7] = pHLM, scaling factor 45 mg microsomal protein per gram liver
[8] = equilibrium dialysis 5 h, 10 µg mL^−1
[9] = pH 7.4, BNPP and PMSF 500 µM each
[10] = pHLM 0.5 mg mL^−1, 0.5 µM, NADPH, 37 °C, n ≥ 3 ± SD
[11] = pHLM, alternative microsomal scaling factor 32 mg microsomal protein per gram liver
[12] = pHLM, alternative microsomal scaling factor 45 mg microsomal protein per gram liver

Row | SMILES | Predicted In Vivo Hepatic Clearance, CLH [2] | Hepatic extraction ratio, EH ([2]; from pHHeps incubations) | T1/2 [2] | Hepatic extraction ratio, EH [2, 5] | Predicted in vivo hepatic clearance, CLH [2, 5] | % parent compound remaining, Average ([2]; pHHeps, 3 min) | % parent compound remaining, Average ([2]; pHHeps, 6 min) | % parent compound remaining, Average ([2]; pHHeps, 9 min) | % parent compound remaining, Average ([2]; pHHeps, 15 min) | % parent compound remaining, Average ([2]; pHHeps, 30 min) | % parent compound remaining, Average ([2]; pHHeps, 45 min) | % parent compound remaining, Average ([2]; pHHeps, 60 min) | Intrinsic clearance, CLint ([2]; pHHeps) | Predicted In Vivo Hepatic Clearance, CLH [3] | Hepatic extraction ratio, EH ([3]; from pHLM incubations) | % parent compound remaining, Average ([3]; pHLM, 3 min) | % parent compound remaining, Average ([3]; pHLM, 6 min) | % parent compound remaining, Average ([3]; pHLM, 9 min) | % parent compound remaining, Average ([3]; pHLM, 15 min) | % parent compound remaining, Average ([3]; pHLM, 30 min) | other results
1 | COC(=O)[C@@H](NC(=O)c1nn(CCCCF)c2ccccc12)C(C)(C)C [(S)-4F-MDMB-BINACA (4), methyl 2-[1-(4-fluorobutyl)-1H-indazole-3-carboxamido]-3,3-dimethylbutanoate] | 12.08 ± 0.23 mL/min/kg | 0.58 ± 0.011 | 16 ± 0.74 min | 0.56 ± 0.011 | 11.68 ± 0.24 mL/min/kg | 82.3% | 73.7% | 69.2% | 53.9% | 25.8% | 12.5% | 6.2% | 432 ± 20.0 mL/min/kg | 7.51 ± 0.88 mL/min/kg | 0.36 ± 0.042 | 74.9% | 63.6% | 50.4% | 32.7% | 17.0% | remaining at 3 h, 5 µM ([1]; Esterase Inhibitors, pH 7.4, BNPP and PMSF 500 µM each): 96 ± 2.9%; remaining at 3 h, 5 µM ([1]; plasma, No Esterase Inhibitors, pH 7.4, pooled human plasma): 93.1 ± 5.1%; CLint scaled at 0.5 µM ([3]; human, microsomes, pHLM, alternative microsomal scaling factor 32 mg microsomal protein per gram liver): 118 mL/min/kg; CLint scaled at 0.5 µM ([3]; human, microsomes, pHLM, alternative microsomal scaling factor 45 mg microsomal protein per gram liver): 165 mL/min/kg; half-life at 0.5 µM ([3]; human, microsomes, pH 7.4, T1/2 (min), pHLM 0.5 mg mL^−1, 0.5 µM, NADPH, 37 °C, n ≥ 3 ± SD): 9.9 ± 1.9 min; Microsomal Intrinsic Clearance, CLint micr ([3]; pHLM, n ≥ 3 ± SD): 0.143 ± 0.025 mL min^−1 mg Microsomal Protein^−1; Hepatic extraction ratio, EH [3, 6]: 0.25 ± 0.034; Predicted in vivo hepatic clearance, CLH [3, 6]: 5.33 mL/min/kg; Predicted in vivo hepatic clearance, CLH [3, 7]: 6.78 mL/min/kg; PPB (%) [4, 8]: 93.9 ± 0.28%; fraction unbound at 5 h, 10 µg mL^−1 ([4]; plasma, read-out: Fraction Unbound (fu)): 0.061 ± 0.0028
2 | C=CCCCn1cc(C(=O)N[C@@H](C(=O)OC)C(C)(C)C)c2ccccc21 [(R)-MDMB-4en-PICA (12), methyl 3,3-dimethyl-2-[1-(pent-4-en-1-yl)-1H-indole-3-carboxamido]butanoate] | 6.42 ± 0.62 mL/min/kg | 0.31 ± 0.029 | 44 ± 6.3 min | 0.29 ± 0.028 | 6.08 ± 0.60 mL/min/kg | 90.1% | 81.5% | 83.7% | 79.3% | 61.6% | 46.4% | 40.6% | 162 ± 22.16 mL/min/kg | 9.81 ± 0.75 mL/min/kg | 0.47 ± 0.036 | 67.7% | 47.7% | 31.7% | 13.8% | 1.7% | Parent Compound Remaining (%), Esterase Inhibitors [1, 9]: 87.7 ± 11.0%; Parent Compound Remaining (%), No Esterase Inhibitors ([1]; pH 7.4, pooled human plasma): 90.3 ± 5.4%; T1/2 [3, 10]: 5.4 ± 0.74 min; Intrinsic clearance, CLint [3, 11]: 213 mL/min/kg; Intrinsic clearance, CLint [3, 12]: 300 mL/min/kg; Microsomal Intrinsic Clearance, CLint micr ([3]; pHLM, n ≥ 3 ± SD): 0.260 ± 0.040 mL min^−1 mg Microsomal Protein^−1; Hepatic extraction ratio, EH [3, 6]: 0.35 ± 0.033; Predicted in vivo hepatic clearance, CLH [3, 6]: 7.32 ± 0.70 mL/min/kg; Hepatic extraction ratio, EH [3, 7]: 0.43 ± 0.035; Predicted in vivo hepatic clearance, CLH [3, 7]: 9.01 ± 0.74 mL/min/kg; PPB (%) [4, 8]: 94.7 ± 1.11%; Fraction Unbound (fu) ([4]; equilibrium dialysis 5 h, plasma): 0.053 ± 0.0111
3 | COC(=O)[C@H](NC(=O)c1nn(CCCCF)c2ccccc12)C(C)(C)C [(R)-4F-MDMB-BINACA (4), methyl 2-[1-(4-fluorobutyl)-1H-indazole-3-carboxamido]-3,3-dimethylbutanoate] | 8.77 ± 1.43 mL/min/kg | 0.42 ± 0.068 | 58 ± 17.2 min | 0.40 ± 0.067 | 8.38 ± 1.40 mL/min/kg | 89.2% | 84.6% | 91.0% | 82.6% | 65.7% | 48.5% | 37.9% | 128 ± 34.6 mL/min/kg | 8.55 ± 0.24 mL/min/kg | 0.41 ± 0.012 | 78.8% | 72.8% | 54.1% | 48.4% | 26.6% | Parent Compound Remaining (%), Esterase Inhibitors [1, 9]: 96.0 ± 1.7%; Parent Compound Remaining (%), No Esterase Inhibitors ([1]; pH 7.4, pooled human plasma): 91.1 ± 6.8%; T1/2 [3, 10]: 14 ± 0.68 min; Intrinsic clearance, CLint [3, 11]: 79 mL/min/kg; Intrinsic clearance, CLint [3, 12]: 112 mL/min/kg; Microsomal Intrinsic Clearance, CLint micr ([3]; pHLM, n ≥ 3 ± SD): 0.096 ± 0.005 mL min^−1 mg Microsomal Protein^−1; Hepatic extraction ratio, EH [3, 6]: 0.30 ± 0.010; Predicted in vivo hepatic clearance, CLH [3, 6]: 6.20 mL/min/kg; Hepatic extraction ratio, EH [3, 7]: 0.37 ± 0.011; Predicted in vivo hepatic clearance, CLH [3, 7]: 7.78 mL/min/kg; fraction unbound at 5 h, 10 µg mL^−1 ([4]; 10 µg mL^−1, read-out: PPB (%) (converted)): 0.111
